Reference: patent publication US7799775B2, “Pyrimidine derivatives” (ASKA Pharmaceutical Co., Ltd., priority 2004, dated 2010)

Legend:
human 5-HT3 receptor = biological target: T1, human 5-HT3 receptor (Homo sapiens, UniProt P46098); test: Measurement of affinity to human 5-HT3 receptor (in vitro), [3H]BRL-43694 binding; conditions: test compound 100 nmols/L; [3H]BRL-43694 0.5 nmols/L; HEK-293 cell membrane expressing human 5-HT3 receptor; read-out: Percent Inhibition (%) on Each Receptor's Binding at 10^−7M, 5-HT3
T1 construct: purchased BIOLINKS K.K; host or cells: HEK-293 cells (membrane preparation)
T1 sequence (P46098 24-478): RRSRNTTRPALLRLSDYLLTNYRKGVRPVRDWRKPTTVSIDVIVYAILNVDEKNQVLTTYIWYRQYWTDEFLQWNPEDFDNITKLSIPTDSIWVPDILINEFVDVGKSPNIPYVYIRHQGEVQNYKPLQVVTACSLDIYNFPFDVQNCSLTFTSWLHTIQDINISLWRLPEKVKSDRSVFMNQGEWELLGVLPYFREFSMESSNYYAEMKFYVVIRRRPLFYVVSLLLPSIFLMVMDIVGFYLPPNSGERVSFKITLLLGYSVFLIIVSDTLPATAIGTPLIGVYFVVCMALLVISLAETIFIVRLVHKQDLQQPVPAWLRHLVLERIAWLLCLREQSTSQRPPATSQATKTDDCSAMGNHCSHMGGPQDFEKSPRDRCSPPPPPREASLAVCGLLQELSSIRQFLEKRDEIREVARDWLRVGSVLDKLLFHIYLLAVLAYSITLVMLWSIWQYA
Description: (2) Measurement of Affinity of Each Test Compound to Human 5-HT3 Receptor (in Vitro):
HEK-293 cell membrane sample in which human 5-HT3 receptor was expressed (purchased from BIOLINKS K.K.) 0.05 mL (about 50 microassay) was added to 24.95 mL of incubation buffer solution B (an aqueous solution of a mixture of 50 mmols/L of Tris-hydrochloric acid, 5 mmols/L of magnesium chloride and 1 mmol/L of EDTA, whose pH was adjusted to 7.5 at 25° C. with 1N-aqueous sodium hydroxide solution) and homogenized, to provide a membrane sample suspension B. Separately, each test compound was made into 270 μmols/L of DMSO solution and diluted to a prescribed concentration with the incubation buffer solution B to provide a compound solution.
A piece of polypropylene tube was charged with 20 μL of [^3H]BRL-43694 (purchased from Daiichi Pure Chemicals Co., Ltd.) (The concentration of [^3H]BRL-43694 had been advancedly adjusted to render its concentration in the reaction mixture to 0.5 nmols/L.) and 20 μL of one of the compound solutions. Further 500 μL of the membrane sample suspension B was added into the tube, followed by 60 minutes' incubation at 25° C. The reaction was terminated by rapid filtration of the reaction mixture through GF/B filter which had been advancedly immersed in a solution formed by adding to the incubation buffer solution B polyethyleneimine to a concentration of 0.5%, using Brandel cell harvester. Then the filter was washed with about 5 mL of 50 mmols/L of Tris-hydrochloric acid which had been cooled to 4° C. The filter was once again washed after similar operation.
(§1) Residual radioactivity on the filter was measured with liquid scintillation counter (ALOKA CO., LTD. LSC-5100). Percent inhibition (%) of each test compound to binding of [^3H]BRL-43694 to 5-HT3 receptor at a concentration of 0.5 nmols/L, i.e., affinity of each test compound to 5-HT3 receptor, can be calculated according to the following expression. The ratio of non-specific binding was calculated by measuring the radioactivity in case of using tropisetron: (ICS 205-930) at a concentration of 10 μmols/L, with which value the measured value of each test compound was compensated.
(§2) Affinity of each test compound to 5-HT1A receptor and 5-HT3 receptor at a concentration of 100 nmols/L were as shown in the following Tables A-1 and A-2. BRL-43694 and tropisetron (ICS 205-930), which were used in measuring affinity of those compounds to 5-HT3 receptor, have the following structures: […]

human 5-HT1A receptor = biological target: T2, human 5-HT1A receptor (Homo sapiens, UniProt P08908); test: Affinity measurement of the compounds to human 5-HT1A receptor (in vitro), [3H]8-OH-DPAT binding; conditions: test compound 100 nmols/L; [3H]8-OH-DPAT 0.25 nmols/L; CHO cell membrane expressing human 5-HT1A receptor; read-out: Percent Inhibition (%) on Each Receptor's Binding at 10^−7M, 5-HT1A
T2 construct: purchased Packard Bioscience; host or cells: CHO cells (membrane preparation)
T2 sequence (P08908 1-422): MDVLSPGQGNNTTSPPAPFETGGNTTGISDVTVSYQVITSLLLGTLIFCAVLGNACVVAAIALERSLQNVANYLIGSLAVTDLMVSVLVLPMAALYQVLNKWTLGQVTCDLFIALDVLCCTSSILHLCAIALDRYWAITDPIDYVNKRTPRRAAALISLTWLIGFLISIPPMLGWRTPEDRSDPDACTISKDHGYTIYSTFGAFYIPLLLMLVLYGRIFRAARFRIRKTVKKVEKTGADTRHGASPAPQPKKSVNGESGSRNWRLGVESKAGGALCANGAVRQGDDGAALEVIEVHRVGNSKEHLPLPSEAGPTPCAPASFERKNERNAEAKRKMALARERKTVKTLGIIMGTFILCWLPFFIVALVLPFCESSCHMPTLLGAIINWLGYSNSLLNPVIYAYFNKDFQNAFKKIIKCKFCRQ
Description: (1) Affinity Measurement of the Compounds to Human 5-HT1A Receptor (in Vitro)
CHO cell membrane sample in which human 5-HT1A receptor was expressed (purchased from Packard Bioscience) 0.25 mL (about 50 units) was added to 24.75 mL of incubation buffer solution A (an aqueous solution of a mixture of 50 mmols/L of Tris-hydrochloric acid, 10 mmols/L of magnesium sulfate, 0.5 mmols/L of EDTA and 0.1% ascorbic acid, whose pH was adjusted to 7.4 at 27° C. with 1N-aqueous sodium hydroxide solution), and labeled as membrane sample suspension A. Separately, each test compound was made into 270 μmols/L DMSO solution and diluted to a prescribed concentration with the incubation buffer solution A, to provide a compound solution.
A piece of polypropylene tube was charged with 20 μL of [^3H]8-OH-DPAT (8-hydroxy-2-(di-n-propylamino)tetralin; purchased from Daiichi Pure Chemicals Co., Ltd.) (The concentration of the [^3H]8-OH-DPAT had been advancedly adjusted to render its concentration in the reaction mixture to 0.25 nmols/L) and 20 μL of one of the compound solutions. Further 500 μL of the membrane sample suspension A was added into the tube, followed by 60 minutes' incubation at 27° C. The reaction was terminated by rapid filtration of the reaction mixture through GF/C filter which had been advancedly immersed in a solution formed by adding to the incubation buffer solution A polyethyleneimine to a concentration of 0.3%, using Brandel cell harvester. Then the filter was washed with about 5 mL of 50 mmols/L of Tris-hydrochloric acid which had been cooled to 4° C. The filter was once again washed after similar operation.
as §1, with “(Aloka Co.,” for “(ALOKA CO., LTD.”, “[^3H]8-OH-DPAT” for “[^3H]BRL-43694”, “5-HT1A” for “5-HT3”, “0.25” for “0.5”, “8-OH-DPAT” for “tropisetron: (ICS 205-930)”
as §2

SMILES	inhibition at 0.1 µM (human 5-HT3 receptor) [%]	inhibition at 0.1 µM (human 5-HT1A receptor) [%]
Cc1sc2nc(CCCCN3CCN(c4ccc5ccccc5n4)CC3)[nH]c(=O)c2c1C [Example 3-1, 5,6-dimethyl-2-[4-(4-quinolin-2-ylpiperazin-1-yl)butyl]-3H-thieno[2,3-d]pyrimidin-4-one]	96.9	77
CCOC(=O)c1sc2nc(SCCCN3CCN(c4ccc5ccccc5n4)CC3)n(N)c(=O)c2c1C [Example 1-14, 3-amino-5-methyl-4-oxo-2-[3-(4-quinolin-2-ylpiperazin-1-yl)-propylthio]-3,4-dihydrothieno[2,3-d]pyrimidine-6-carboxylic acid ethyl ester]	95.9	99.8
COc1ccc2c(N3CCNCC3)nccc2c1 [Production Example 40, 6-methoxy-1-piperazin-1-ylisoquinoline]	99.3	42.9
COc1ccc(-n2c(CCCCN3CCN(c4ccc5ccccc5n4)CC3)nc3ccccc3c2=O)cc1 [Example 7-17, 3-(4-methoxyphenyl)-2-[4-(4-quinolin-2-ylpiperazin-1-yl)butyl]-3H-quinazolin-4-one]	1.9	50.6
Cc1ccc2c(=O)n(C)c(CCCCN3CCN(c4ccc5ccccc5n4)CC3)nc2c1 [Example 7-24, 3,7-dimethyl-2-[4-(4-quinolin-2-ylpiperazin-1-yl)butyl]-3H-quinazolin-4-one]	30	78.3
CN1CCN(c2nccc3cccnc23)CC1 [Production Example 23, 8-(4-methylpiperazin-1yl)[1,7]naphthyridine]	85.8	83.2
NNc1cccc2nc(CCCCN3CCN(c4ccc5ccccc5n4)CC3)n(N)c(=O)c12 [Example 4-28, 3-amino-5-hydrazino-2-[4-(4-quinolin-2-ylpiperazin-1-yl)butyl]-3H-quinazolin-4-one]	45.1	97.6
CC1CCc2nc(CCCCN3CCN(c4ccc5ccccc5n4)CC3)n(C)c(=O)c2C1 (centres unmarked) [Example 7-12, 3,6-dimethyl-2-[4-(4-quinolin-2-ylpiperazin-1-yl)butyl]-5,6,7,8-tetrahydro-3H-quinazolin-4-one]	93.2	96
Cn1c(NCCCN2CCN(c3ccc4ccccc4n3)CC2)nc2c(c1=O)CCCC2 [Example 7-29, 3-methyl-2-[3-(4-quinolin-2-ylpiperazin-1-yl)propylamino]-5,6,7,8-tetrahydro-3H-quinazolin-4-one]	93.6	80.8
Nn1c(CCCCN2CCN(c3ccc4ccccc4n3)CC2)nc2ccc(F)cc2c1=O [Example 4-56, 3-amino-6-fluoro-2-[4-(4-quinolin-2-ylpiperazin-1-yl)butyl]-3H-quinazolin-4-one]	50.2	96.9
O=c1c2c(nc(CCCCN3CCN(c4nc5ccccc5s4)CC3)n1Cc1ccccc1)CCCC2 [Example 7-11, 2-[4-(4-benzothiazol-2-ylpiperazin-1-yl)butyl]-3-benzyl-5,6,7,8-tetrahydro-3H-quinazolin-4-one]	24.7	45
CSc1ccc2ccnc(N3CCN4CCC[C@H]4C3)c2c1 [Production Example 82]	90.3	99.3
CCN1CCN(c2nccc3ccccc23)CC1 [Production Example 37, 1-(4-ethylpiperazin-1-yl)isoquinoline]	70.2	57.3
Cn1c(CCCCN2CCN(c3ccc4ccccc4n3)CC2)nc2ccc(Cl)cc2c1=O [Example 7-25, 6-chloro-3-methyl-2-[4-(4-quinolin-2-ylpiperazin-1-yl)butyl]-3H-quinazolin-4-one]	99.7	97.5
CC(C)n1c(CCCCN2CCN(c3ccc4ccccc4n3)CC2)nc2ccccc2c1=O [Example 7-15, 3-isopropyl-2-[4-(4-quinolin-2-ylpiperazin-1-yl)butyl]-3H-quinazolin-4-one]	35	62.1
c1cc2ccsc2c(N2CCN3CCCCC3C2)n1 (centres unmarked) [Production Example 120, 7-octahydropyrido[1,2-a]pyrazin-2-ylthieno[2,3-c]pyridine]	99.4	81
Cc1sc2nc(SCCCN3CCN(c4nc5ccccc5n5cccc45)CC3)n(N)c(=O)c2c1C [Example 1-5, 3-amino-5,6-dimethyl-2-[3-(4-pyrrolo[1,2-a]quinoxalin-4-ylpiperazin-1-yl)propylthio]-3H-thieno[2,3-d]pyrimidin-4-one]	82.6	85
c1cnc2c(N3CCN4CCC[C@H]4C3)nccc2c1 [Production Example 74, 8-((8aS)-octahydropyrrolo[1,2-a]pyrazin-2-yl)-1,7-naphthyridine]	98.9	94.6
Nn1c(SCCCN2CCN(c3ccc4ccccc4n3)CC2)nc2sc3c(c2c1=O)CCCC3 [Example 1-4, 3-amino-2-[3-(4-quinolin-2-ylpiperazin-1-yl)propylthio]-5,6,7,8-tetrahydro-3H-benzo[4,5]thieno[2,3-d]pyrimidin-4-one]	93.2	96.6
